In ChEMBL document CHEMBL4334470, “Small molecule modulators targeting protein kinase CK1 and CK2” (Eur J Med Chem, 2019):

What was measured:
[1] = biological target: T1, Casein kinase II subunit alpha (Homo sapiens, UniProt P68400); assay: Inhibition of CK2alpha (unknown origin)
[2] = biological target: T1, Casein kinase II subunit alpha; assay: Inhibition of CK2alpha (unknown origin) using RRRADDSDDDDD as substrate in presence of [gamma33P]-ATP by autoradiography
Casein kinase I = assay: Inhibition of CK1 (unknown origin); type: protein assay, Homo sapiens
[3] = biological target: Casein kinase I isoform alpha (Homo sapiens, UniProt P48729); assay: Inhibition of CK1alpha (unknown origin)
Chain of Casein kinase I isoform alpha (P48729 whole entry, canonical isoform): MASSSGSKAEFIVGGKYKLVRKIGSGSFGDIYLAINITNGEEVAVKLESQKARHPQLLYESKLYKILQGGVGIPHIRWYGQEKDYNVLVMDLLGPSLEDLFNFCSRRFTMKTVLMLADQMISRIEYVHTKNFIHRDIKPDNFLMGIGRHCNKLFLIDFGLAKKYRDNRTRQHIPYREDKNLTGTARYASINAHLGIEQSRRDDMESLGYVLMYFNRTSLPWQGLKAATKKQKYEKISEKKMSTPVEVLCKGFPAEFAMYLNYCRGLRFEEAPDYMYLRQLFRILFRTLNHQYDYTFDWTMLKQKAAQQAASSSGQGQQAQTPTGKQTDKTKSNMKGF

[4] = biological target: Casein kinase I delta/epsilon (Homo sapiens, UniProt P48730+P49674); assay: Inhibition of CK1delta/CK1epsilon (unknown origin); type: protein-complex assay
Chain of Casein kinase I delta/epsilon (P48730 whole entry): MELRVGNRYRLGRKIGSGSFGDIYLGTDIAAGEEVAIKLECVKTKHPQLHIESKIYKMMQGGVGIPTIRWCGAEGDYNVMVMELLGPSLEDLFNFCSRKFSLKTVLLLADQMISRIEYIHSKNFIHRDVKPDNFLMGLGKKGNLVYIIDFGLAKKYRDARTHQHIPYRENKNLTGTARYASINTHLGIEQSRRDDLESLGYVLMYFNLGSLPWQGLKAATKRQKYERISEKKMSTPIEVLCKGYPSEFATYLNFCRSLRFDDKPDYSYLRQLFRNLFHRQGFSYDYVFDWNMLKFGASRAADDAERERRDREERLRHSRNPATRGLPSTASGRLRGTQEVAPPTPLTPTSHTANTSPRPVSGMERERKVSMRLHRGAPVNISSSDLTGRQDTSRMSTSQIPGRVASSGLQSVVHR
Chain of Casein kinase I delta/epsilon (P49674 whole entry): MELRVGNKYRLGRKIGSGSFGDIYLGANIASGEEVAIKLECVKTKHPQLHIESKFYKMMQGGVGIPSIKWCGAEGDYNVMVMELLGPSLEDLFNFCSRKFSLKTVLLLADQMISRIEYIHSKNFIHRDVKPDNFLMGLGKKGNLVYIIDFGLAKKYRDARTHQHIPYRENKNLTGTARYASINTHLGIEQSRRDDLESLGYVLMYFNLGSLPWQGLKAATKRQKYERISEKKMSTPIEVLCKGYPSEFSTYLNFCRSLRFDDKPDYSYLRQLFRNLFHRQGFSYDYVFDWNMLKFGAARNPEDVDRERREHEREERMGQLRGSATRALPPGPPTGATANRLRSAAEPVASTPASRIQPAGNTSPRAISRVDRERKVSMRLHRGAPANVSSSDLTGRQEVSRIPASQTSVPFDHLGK

T1 sequence (P68400 whole entry): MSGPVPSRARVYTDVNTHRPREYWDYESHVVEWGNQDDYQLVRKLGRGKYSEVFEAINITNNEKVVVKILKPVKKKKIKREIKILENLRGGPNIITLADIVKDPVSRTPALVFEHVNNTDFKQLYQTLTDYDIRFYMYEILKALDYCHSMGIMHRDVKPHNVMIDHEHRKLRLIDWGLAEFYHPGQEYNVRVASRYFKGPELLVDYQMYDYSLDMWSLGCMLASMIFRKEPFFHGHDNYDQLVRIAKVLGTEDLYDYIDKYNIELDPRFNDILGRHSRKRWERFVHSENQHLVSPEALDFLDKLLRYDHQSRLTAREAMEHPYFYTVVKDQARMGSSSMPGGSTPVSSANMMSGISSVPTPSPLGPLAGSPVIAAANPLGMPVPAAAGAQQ

Structure (SMILES)	Ki [1] [nM]	also measured
CCCCCCCCCCCC1=C(O)C(=O)C2=C(OC(N)=C(C#N)C2[N+](=O)[O-])C1=O (stereo unspecified)	220	
O=C(O)/C=C/c1cc(Br)c(Br)c(Br)c1Br		Ki [2]: 77 nM
NCCNS(=O)(=O)c1ccc(Cl)c2ccncc12		IC50 (Casein kinase I): 9500 nM
O=C1c2c(O)cccc2C(=O)c2c([N+](=O)[O-])ccc(O)c21	800	
O=c1c(O)c(-c2ccc(O)c(O)c2)oc2cc(O)ccc12 [FISETIN]	350	
O=c1c2c(O)cccc2oc2c([N+](=O)[O-])ccc(O)c12	780	
COc1cc(OC)c(/C=C2\C(=O)Nc3ccccc32)c(OC)c1		IC50 [3]: 16000 nM; IC50 [4]: 1000 nM

Second part, led by results:

Ki [1] [nM]	Structure (SMILES)	also measured
20	O=c1oc2c(O)c(O)cc3c(=O)oc4c(O)c(O)cc1c4c23 [ELLAGIC ACID]	
7	O=c1oc2c(Br)c(O)ccc2c2ccc(O)cc12	
60	Cc1c(Br)c(=O)oc2c(Br)c(O)ccc12	
